The source of these data is paper PMC11651172, “Suite of Biochemical and Cell-Based Assays for the Characterization of Kirsten Rat Sarcoma (KRAS) Inhibitors and Degraders” (ACS Pharmacology & Translational Science, 2024).

The target in assay [1] is T1, KRAS(WT) (Homo sapiens, UniProt P01116).
T1 construct: knocking in an ED fragment (and the relevant mutation in KRAS) into the KRAS locus by CRISPR technology; ED tag (ePL, enhanced ProLink); host or cells: A549 (SPRINTer A549 KRAS WT, homozygous CRISPR knock-in)
T1 sequence (P01116 1-188 isoform P01116-2): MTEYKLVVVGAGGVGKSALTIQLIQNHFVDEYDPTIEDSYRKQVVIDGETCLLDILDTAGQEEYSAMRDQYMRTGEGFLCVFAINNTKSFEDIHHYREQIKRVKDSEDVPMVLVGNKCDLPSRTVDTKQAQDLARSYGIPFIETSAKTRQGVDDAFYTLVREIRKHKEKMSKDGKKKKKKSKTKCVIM
The assay can be described thus: targeted protein degradation assay (EFC). Format: cell-based. To be noted: A549 ED-KRAS(WT) cells, 18 h, top dose 10 μM. The protocol: (§1) We tested the KRAS(G12C)-specific protein degrader LC2 (Figure 1C) with our three KRAS cell lines in the developed protein degradation assay. The assay was set up in homogeneous 384-well format with an 11-point dose response curve, with a top dose of 10 μM and each dose tested in quadruplicate. Cells were incubated with LC2 for 18 h and at the end of incubation, detection reagents containing the complementing EA fragment were added to each well for chemiluminescence quantitation. Shown in Figure 6A, LC2 induced a loss of signal (an indication of protein degradation) in KRAS(G12C) cells with a DC50 of 1.9 μM and a Dmax of 69%, close to the previously described value.[25]
(§2) The gRNAs (crRNA), HiFi Cas9 Nuclease V3, and ATTO 550 tracrRNA used in this study to generate ED-tagged KRAS cell lines were purchased from Integrated DNA Technologies (Coralville, IA). Double-stranded DNAs containing ED or ePL (enhanced ProLink) were purchased from Eurofins Genomics Blue Heron (Bothell, WA). […] The gRNA was first annealed with fluorescence-labeled (ATTO-550) tracrRNA in a 1:1 ratio to form an RNA duplex, followed by incubation with Cas9 nuclease to generate Cas9-gRNA ribonucleoprotein (RNP). […] At 16 h postelectroporation, cells with high fluorescence at 550 nm were sorted to enrich the genome-edited cell populations. […]

Assay [2] addresses T2, KRAS(G12D) (Homo sapiens, UniProt P01116, G12D).
T2 construct: knocking in an ED fragment (and the relevant mutation in KRAS) into the KRAS locus by CRISPR technology; ED tag (ePL, enhanced ProLink); host or cells: A549 (SPRINTer A549 KRAS G12D, CRISPR knock-in)
Nature of the assay: targeted protein degradation assay (EFC). Type of assay: cell-based. To be noted: A549 ED-KRAS(G12D) cells, 18 h, top dose 10 μM. As for the experimental part:
as §1, §2

Assay [3] has as its target T3, KRAS(G12C) (Homo sapiens, UniProt P01116, G12C). On the set-up: made in house; host or cells: HEK293 (transient transfection, unpurified extract); method as in PMID 32875077, PMID 34715575. To be noted: Western blot, among three different cell lines; cited from earlier work.
Target sequence in this assay (P01116 1-164 G12C): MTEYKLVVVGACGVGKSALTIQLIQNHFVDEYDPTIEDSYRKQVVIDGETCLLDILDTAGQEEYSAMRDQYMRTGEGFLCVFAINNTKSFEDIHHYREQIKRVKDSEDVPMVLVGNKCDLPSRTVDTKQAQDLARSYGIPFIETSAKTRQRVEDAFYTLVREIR
Assay [4] concerns the target T3, KRAS(G12C). Nature of the assay: targeted protein degradation assay (EFC). Type of assay: cell-based. Also noted: knocking in an ED fragment (and the relevant mutation in KRAS) into the KRAS locus by CRISPR technology; ED tag (ePL, enhanced ProLink); host or cells: A549 (SPRINTer A549 KRAS G12C, homozygous CRISPR knock-in). The protocol: as §1, §2
Target sequence in this assay (P01116 1-188 isoform P01116-2 G12C): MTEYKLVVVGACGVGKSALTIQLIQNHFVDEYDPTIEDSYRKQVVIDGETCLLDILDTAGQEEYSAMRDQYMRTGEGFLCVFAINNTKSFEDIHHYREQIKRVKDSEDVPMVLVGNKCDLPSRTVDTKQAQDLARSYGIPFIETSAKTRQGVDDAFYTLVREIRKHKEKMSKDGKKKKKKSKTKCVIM
Assay [5] addresses T3, KRAS(G12C). Nature of the assay: pulse target engagement assay. To be noted: KRAS(G12C) cells, 1 or 5 h incubation, 3 min at 67 °C. Type of assay: cell-based. On the set-up: knocking in an ED fragment (and the relevant mutation in KRAS) into the KRAS locus by CRISPR technology; ED tag (ePL, enhanced ProLink); host or cells: A549 (SPRINTer A549 KRAS G12C, homozygous CRISPR knock-in). The protocol: (§3) Next, we explored the application of KRAS cell lines for a pulse target engagement (TE) assay to profile compounds or identify new ligands. The TE assay is based on the observation that the direct interaction between a compound and its cellular protein target increases the stability of the protein and reduces its turnover.[48],[49],[51] […] Therefore, in our pulse TE assay, cells are incubated with a compound and then subjected to an elevated temperature to induce protein denaturation. Compound binding protects the target protein from denaturation, and consequently preserves enzyme complementation activities with the cellular ED-tagged fusion protein, producing a robust chemiluminescent signal. In the absence of compound binding, the target protein forms denatured aggregates that leads to a loss of complementation ability and decreased chemiluminescent signal (Figure 7).
(§4) We next performed pulse TE assays with a panel of KRAS inhibitors on three KRAS cell lines. […] Cells were incubated with the compounds for 1 or 5 h, followed by a 3 min incubation at 67 °C.
(§5) The pulse target engagement assay was set up in a 96-well format with an 11-point dose response curve (triplicates/dose) and vehicle control. Cells were collected and diluted in complete medium that allowed for a cell seeding of 5000 cells in 40 μL per well in 96-well PCR plates (black, Thermo Fisher Scientific, Waltham, MA). […]
Target sequence in this assay (P01116 1-188 isoform P01116-2 G12C): as above

Assay [6] deals with T1, KRAS(WT). The assay can be described thus: pulse target engagement assay. Type of assay: cell-based. To be noted: KRAS(WT) cells, 1 or 5 h incubation, 3 min at 67 °C. The protocol:
as §3, §4, §5

For assay [7], the target named is T2, KRAS(G12D). The assay can be described thus: pulse target engagement assay. Type of assay: cell-based. The settings on record: KRAS(G12D) cells, 1 or 5 h incubation, 3 min at 67 °C. As for the experimental part:
as §3, §4, §5

“Also recorded” adds a separate entry of the source. Like-named read-outs stand apart in the source and are kept apart here.

T2 sequence (P01116 1-188 isoform P01116-2 G12D): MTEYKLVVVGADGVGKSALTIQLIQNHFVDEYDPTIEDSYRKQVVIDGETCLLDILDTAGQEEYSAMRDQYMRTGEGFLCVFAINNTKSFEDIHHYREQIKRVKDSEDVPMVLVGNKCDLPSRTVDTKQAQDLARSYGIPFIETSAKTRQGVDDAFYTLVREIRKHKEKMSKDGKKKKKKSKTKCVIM

As to `C=C(F)C(=O)N1CCN(c2nc(OC[C@@H]3CCCN3CCCOCCC(=O)N[C@H](C(=O)N3C[C@H](O)C[C@H]3C(=O)NCc3ccc(-c4scnc4C)cc3)C(C)(C)C)nc3c2CCN(c2cccc4cccc(Cl)c24)C3)C[C@@H]1CC#N` [LC2], the protein degradation result at KRAS(WT) [1] is listed as “sparing KRAS(WT)”; at KRAS(G12D) [2] it was “some degradation in KRAS(G12D) cells at high doses; also recorded: low levels of KRAS(G12D) degradation only at higher concentrations”. Further, the DC50 was 250 to 760 nM at KRAS(G12C) [3] and 1900 nM at KRAS(G12C) [4] (A549 ED-KRAS(G12C) cells, 18 h incubation). Further, the Dmax on KRAS(G12C) [3] was 75%–90%; on KRAS(G12C) [4] (A549), 69%.
Consider `C#Cc1c(F)ccc2cc(O)cc(-c3ncc4c(N5CC6CCC(C5)N6)nc(OC[C@@]56CCCN5C[C@H](F)C6)nc4c3F)c12` [MRTX1133], for which the “target engagement (affinity in words)” value was “some interaction; also recorded: some binding to KRAS(G12C) and KRAS(WT) proteins at high concentration” on KRAS(G12C) [5]; “some interaction; also recorded: some binding to KRAS(G12C) and KRAS(WT) proteins at high concentration” on KRAS(WT) [6]; “high selectivity; also recorded: high affinity” on KRAS(G12D) [7].
